Assay results from publication PMC6010111, “Synthesis, biological evaluation and molecular modeling studies on novel quinonoid inhibitors of CDC25 phosphatases” (Journal of Enzyme Inhibition and Medicinal Chemistry, 2016).

Tests used:
Type in all cases: biochemical
[1] = target: T1, human CDC25A (recombinant GST-CDC25) (Homo sapiens, UniProt P30304); experiment: CDC25A dephosphorylation assay with 3-O-methylfluorescein phosphate (fluorimetric); conditions: for IC50: mean of triplicates ± SD; for remaining activity at 100 µM: 100 µM compound, DMSO control = 100%, read-out: residual activity of CDC25A
T1 construct: made in house; host or cells: Escherichia coli BL21-DE3 pLys S
T1 sequence (P30304 1-524): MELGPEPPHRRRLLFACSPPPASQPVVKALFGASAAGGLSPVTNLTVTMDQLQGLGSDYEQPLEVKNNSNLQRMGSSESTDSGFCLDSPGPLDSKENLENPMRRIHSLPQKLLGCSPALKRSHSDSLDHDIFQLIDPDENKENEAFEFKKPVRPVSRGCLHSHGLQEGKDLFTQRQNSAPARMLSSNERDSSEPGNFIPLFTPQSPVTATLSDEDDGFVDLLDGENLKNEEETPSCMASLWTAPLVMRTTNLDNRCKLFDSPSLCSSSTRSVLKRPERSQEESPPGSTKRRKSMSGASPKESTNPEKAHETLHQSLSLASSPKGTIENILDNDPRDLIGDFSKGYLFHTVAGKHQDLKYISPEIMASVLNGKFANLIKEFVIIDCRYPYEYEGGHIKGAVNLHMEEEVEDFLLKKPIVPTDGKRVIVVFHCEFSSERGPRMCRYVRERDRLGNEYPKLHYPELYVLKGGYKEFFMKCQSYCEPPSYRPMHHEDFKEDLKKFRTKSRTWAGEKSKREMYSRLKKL
Description: (§1) Human glutathione-S-transferase (GST)-Cdc25 recombinant enzymes were used to evaluate the inhibitory potential of compounds.
(§2) Recombinant human GST-CDC25 proteins were produced as previously described by Brault et al.[25] Briefly, the GST-tagged Cdc25s were expressed in the bacterial expression system Escherichia coli BL21-DE3 pLys S, transformed by a plasmidic vector (pGEX 2T) containing the sequences encoding full length CDC25. Production of recombinant proteins was induced via an IPTG induction system. Then, cells were lysed and centrifuged to recover the supernatant which was purified with a GSH-agarose column system, and recombinant GST-CDC25 proteins were eluted and collected in fractions. Activity, purity and protein concentration of the fractions were evaluated.
(§3) CDC25 enzymatic activity was measured by a dephosphorylation assay with 3-O methyl fluorescein phosphate as described. Briefly, the assay was performed in 96-well plates in buffer [50 mM Tris–HCl, 50 mM NaCl, 1 mM EDTA and 0.1% SAB, pH 8.1], 3-O-methylfluorescein phosphate was used as substrate. After 2 h at 30 °C, 3-O-methylfluorescein fluorescent emission was measured with a CytoFluor system (Perspective Applied Biosystems, Villebon-sur-Yvette, France; excitation filter: 475 nm; emission filter: 510 nm).
(§4) Assays were performed in triplicate, and the experiment was independently performed three times. The results are expressed as percentage of inhibition of CDC25 phosphatase activity in presence of the tested compounds (and compared to DMSO control). All compounds were tested at a 100 µM concentration. Naphtoquinone (20 µM) was used as positive reference inhibitor.
(§5) IC50 values for CDC25 inhibition were evaluated by in vitro fluorimetric assays and were determined with sigmoid curves plotted by using a non-linear approximation model based on the least square method (GraphPad Prism software, La Jolla, CA).

[2] = target: T2, human CDC25B (recombinant GST-CDC25) (Homo sapiens, UniProt P30305); experiment: CDC25B dephosphorylation assay with 3-O-methylfluorescein phosphate (fluorimetric); conditions: for IC50 / IC50 CDC25B: mean of triplicates ± SD; for remaining activity at 100 µM: 100 µM compound, DMSO control = 100%, read-out: residual activity of CDC25B
T2 construct: made in house; host or cells: Escherichia coli BL21-DE3 pLys S
T2 sequence (P30305 1-580): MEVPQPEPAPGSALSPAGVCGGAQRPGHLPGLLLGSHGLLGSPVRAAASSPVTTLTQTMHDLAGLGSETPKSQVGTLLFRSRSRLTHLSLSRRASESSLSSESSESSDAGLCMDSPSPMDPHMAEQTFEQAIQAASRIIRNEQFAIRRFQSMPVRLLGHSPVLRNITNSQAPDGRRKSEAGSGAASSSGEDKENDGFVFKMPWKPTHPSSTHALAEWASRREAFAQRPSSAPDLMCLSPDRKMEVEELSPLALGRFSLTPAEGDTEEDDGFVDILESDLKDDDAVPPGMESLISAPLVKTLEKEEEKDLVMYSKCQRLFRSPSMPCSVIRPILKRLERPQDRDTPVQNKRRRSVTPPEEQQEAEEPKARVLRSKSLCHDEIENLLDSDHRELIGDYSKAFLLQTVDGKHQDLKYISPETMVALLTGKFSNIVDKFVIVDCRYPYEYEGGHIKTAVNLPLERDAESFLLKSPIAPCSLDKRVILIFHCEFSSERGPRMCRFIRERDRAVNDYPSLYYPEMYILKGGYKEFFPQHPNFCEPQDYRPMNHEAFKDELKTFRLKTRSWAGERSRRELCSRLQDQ
Description: as §1, §2, §3, §4, §5

[3] = target: T3, human CDC25C (recombinant GST-CDC25) (Homo sapiens, UniProt P30307); experiment: CDC25C dephosphorylation assay with 3-O-methylfluorescein phosphate (fluorimetric); conditions: for IC50: mean of triplicates ± SD; for remaining activity at 100 µM: 100 µM compound, DMSO control = 100%, read-out: residual activity of CDC25C
T3 construct: made in house; host or cells: Escherichia coli BL21-DE3 pLys S
T3 sequence (P30307 1-473): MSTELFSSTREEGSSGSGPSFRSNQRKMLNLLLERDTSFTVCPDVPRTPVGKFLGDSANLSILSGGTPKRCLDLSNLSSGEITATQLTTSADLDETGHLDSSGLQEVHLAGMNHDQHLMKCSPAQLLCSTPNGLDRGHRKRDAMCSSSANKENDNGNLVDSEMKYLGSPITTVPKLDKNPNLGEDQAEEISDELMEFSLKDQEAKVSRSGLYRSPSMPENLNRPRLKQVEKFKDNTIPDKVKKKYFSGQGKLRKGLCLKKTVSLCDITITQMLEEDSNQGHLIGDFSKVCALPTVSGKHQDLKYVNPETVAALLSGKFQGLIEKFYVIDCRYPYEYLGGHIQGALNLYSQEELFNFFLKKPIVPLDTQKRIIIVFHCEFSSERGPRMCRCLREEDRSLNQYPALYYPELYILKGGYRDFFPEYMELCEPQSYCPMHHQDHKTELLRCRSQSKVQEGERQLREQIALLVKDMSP
Description: as §1, §2, §3, §4, §5

IC50 [1] [µM] | IC50 [2] [µM] | IC50 [3] [µM] | remaining activity at 100 µM [1] [%] | remaining activity at 100 µM [2] [%] | remaining activity at 100 µM [3] [%] | SMILES | IC50 CDC25B [2]
– | – | – | > 10 | > 10 | > 10 | COC1=CC(=O)[C@]2(C)CC=C3CO[C@@H](c4ccccc4)CC3C2C1=O (stereo partly drawn) [Compound 6] | –
3.19 ± 1.02 | 11.1 ± 1.01 | 5.41 ± 0.52 | – | – | – | CCOC1=CC(=O)C(C)=C([S@@+]([O-])c2ccc(C)cc2)C1=O [Compound 3] | double digit micromolar
– | – | – | > 10 | > 10 | > 10 | COC1=CC(=O)[C@]2(C)CC=C3CO[C@@H](c4ccoc4)CC3C2[C@H]1O (stereo partly drawn) [Compound 7] | –
2.64 ± 0.62 | – | – | – | – | – | COC1=CC(=O)C=C([S@@+]([O-])c2ccc(C)cc2)C1=O [Compound 1] | –
– | – | – | > 10 | > 10 | > 10 | COCC1=CC(=O)C(C)=C([S@@+]([O-])c2ccc(C)cc2)C1=O [Compound 2] | –
2.53 ± 0.23 | 7.46 ± 2.17 | 5.76 ± 0.42 | – | – | – | COC1=CC(=O)[C@]2(C)CC=C3CO[C@@H](c4ccccc4)CC3[C@]2([S@@+]([O-])c2ccc(C)cc2)C1=O (stereo partly drawn) [Compound 5] | –

SMILES | IC50 [1] [µM] | IC50 [2] [µM] | IC50 [3] [µM] | remaining activity at 100 µM [1] [%] | remaining activity at 100 µM [2] [%] | remaining activity at 100 µM [3] [%] | IC50 CDC25B [2]
COC1=CC(=O)[C@]2(C)CC=C3CO[C@@H](c4ccoc4)CC3[C@]2([S@@+]([O-])c2ccc(C)cc2)C1=O (stereo partly drawn) [Compound 4] | 3.73 ± 1.53 | 18.2 ± 1.68 | 9.43 ± 1.25 | – | – | – | double digit micromolar
